Assay results from ChEMBL document CHEMBL1201862, “PubChem BioAssay data set” (2004).
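96-well plates; 48 h exposure; 5 concentrations. Endpoints by linear interpolation between flanking doses. Not reached: highest tested concentration assigned. Abbreviation: GI50, concentration required for 50% inhibition of growth.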 The source made the active and inactive calls. No stated cut-off is given here; in the data, active = GI50 up to about 1.1 µM and inactive = higher.

Columns and labels:
Experiment in all cases: NCI-60 cell line screen, 48 h
DLD-1 = system: DLD-1
HCT-116 = system: HCT-116
SK-MEL-28 = system: SK-MEL-28
SK-MEL-2 = system: SK-MEL-2
HCT-15 = system: HCT-15
SNB-19 = system: SNB-19
KM-20L2 = system: KM-20L2
TK-10 = system: TK-10
U-251 = system: U-251
HT-29 = system: HT-29
RXF 393 = system: RXF 393
SF-295 = system: SF-295
A549 = system: A549
786-0 = system: 786-0
SK-OV-3 = system: SK-OV-3
SN12C = system: SN12C
OVCAR-8 = system: OVCAR-8
HOP-18 = system: HOP-18
T47D = system: T47D
MCF7 = system: MCF7

Row | Compound | GI50 (DLD-1) | GI50 (HCT-116) | GI50 (SK-MEL-28) | GI50 (SK-MEL-2) | GI50 (HCT-15) | GI50 (SNB-19) | GI50 (KM-20L2) | GI50 (TK-10) | GI50 (U-251) | GI50 (HT-29) | GI50 (RXF 393) | GI50 (SF-295) | GI50 (A549) | GI50 (786-0) | GI50 (SK-OV-3) | GI50 (SN12C) | GI50 (OVCAR-8) | GI50 (HOP-18) | GI50 (T47D) | GI50 (MCF7)
1 | CC(C)C1COC(c2cccc(C3=N[C@@H](C(C)C)CO3)n2)=N1 (stereo partly drawn) | > 100 µM (inactive) | > 100 µM (inactive) | > 100 µM (inactive) | > 100 µM (inactive) | > 100 µM | > 100 µM (inactive) | > 100 µM (inactive) | > 100 µM (inactive) | 59.3 µM (inactive) | > 100 µM (inactive) | > 100 µM (inactive) | > 100 µM (inactive) | > 100 µM (inactive) | > 100 µM (inactive) | > 100 µM (inactive) | > 100 µM (inactive) |  |  |  | 
2 | [N-]=[N+]=NC1CC(n2cc(COCC(F)(F)F)c(=O)[nH]c2=O)OC1CO (stereo not drawn) | > 100 µM (inactive) |  | > 100 µM (inactive) | > 100 µM (inactive) |  | > 100 µM (inactive) | > 100 µM (inactive) | > 100 µM (inactive) | > 100 µM (inactive) | > 100 µM (inactive) | > 100 µM (inactive) | > 100 µM (inactive) | > 100 µM (inactive) | > 100 µM (inactive) | > 100 µM (inactive) | > 100 µM (inactive) | > 100 µM (inactive) |  |  | 
3 | NC(Cc1ccccc1)C(=O)OCN1C(=O)C2C3C=CC(C2C1=O)C1C2C(=O)N(COC(=O)C(N)Cc4ccccc4)C(=O)C2C31 (stereo not drawn) | 26.6 µM (inactive) | 23 µM (inactive) | 18.6 µM (inactive) |  | 17.6 µM | 43.1 µM (inactive) | 23.9 µM (inactive) | 39.2 µM (inactive) | 17.3 µM (inactive) | 31.8 µM (inactive) | 22.1 µM (inactive) | 41.7 µM (inactive) | 23.2 µM (inactive) | 20.7 µM (inactive) | 27.9 µM (inactive) | 20.8 µM (inactive) | 20.2 µM (inactive) |  |  | 
4 | Cc1c(C(Cc2ccccc2N(C)C(=O)/C=C\C(=O)O)c2c[nH]c3ccccc23)c2ccccc2n1C (stereo not drawn) | 18.2 µM (inactive) | 15.1 µM (inactive) |  | > 10 µM (inactive) | 14.3 µM | 18 µM (inactive) | 18.1 µM (inactive) | 17.7 µM (inactive) | 16.4 µM (inactive) | 15.5 µM (inactive) | 14.2 µM (inactive) | 14.5 µM (inactive) | 16.6 µM (inactive) | 16.4 µM (inactive) | 21.7 µM (inactive) | 16 µM (inactive) | 13.2 µM (inactive) |  |  | 
5 | COc1ccc2[nH]c3c(O)nncc3c2c1 | > 100 µM (inactive) | > 100 µM (inactive) | > 100 µM (inactive) | 71.3 µM (inactive) | > 100 µM | > 100 µM (inactive) |  | > 100 µM (inactive) | > 100 µM (inactive) | > 100 µM (inactive) |  | > 100 µM (inactive) | > 100 µM (inactive) | 90.8 µM (inactive) | 45.7 µM (inactive) |  | > 100 µM (inactive) | > 100 µM (inactive) |  | 
6 | CN(C)CCCNC(=O)N/N=C/c1cccc([N+](=O)[O-])c1 | > 100 µM (inactive) | > 100 µM (inactive) | > 100 µM (inactive) | > 100 µM (inactive) | > 100 µM | > 100 µM (inactive) |  | > 100 µM (inactive) | > 100 µM (inactive) | > 100 µM (inactive) | > 100 µM (inactive) | > 100 µM (inactive) | > 100 µM (inactive) | > 100 µM (inactive) | > 100 µM (inactive) | > 100 µM (inactive) | > 100 µM (inactive) | > 100 µM (inactive) |  | 
7 | O=[N+]([O-])c1ccc2c(c1)OCCOCCOc1ccc([N+](=O)[O-])cc1OCCOCCO2 |  | > 100 µM (inactive) | > 100 µM (inactive) | > 100 µM (inactive) | > 100 µM | > 100 µM (inactive) | 50.9 µM (inactive) | > 100 µM (inactive) | > 100 µM (inactive) | > 100 µM (inactive) | > 100 µM (inactive) | > 100 µM (inactive) | > 100 µM (inactive) | > 100 µM (inactive) | > 100 µM (inactive) | > 100 µM (inactive) | > 100 µM (inactive) |  |  | 
8 | CCCO/S(=N\S(=O)(=O)c1ccccc1)c1ccccc1[N+](=O)[O-] (stereo not drawn) | > 100 µM (inactive) | > 100 µM (inactive) | 63.8 µM (inactive) | > 100 µM (inactive) | > 100 µM | > 100 µM (inactive) | > 100 µM (inactive) |  | > 100 µM (inactive) | > 100 µM (inactive) |  | > 100 µM (inactive) | > 100 µM (inactive) | > 100 µM (inactive) | > 100 µM (inactive) | > 100 µM (inactive) | > 100 µM (inactive) |  |  | 
9 | CC(C)c1ccc2c(c1)CCC1C(C)(C)[C@@H](O)CC[C@]21C (stereo partly drawn) | 36.6 µM (inactive) | 18.5 µM (inactive) | 44.5 µM (inactive) |  | 32.7 µM | 52.4 µM (inactive) | 21.4 µM (inactive) | 54 µM (inactive) | 22.4 µM (inactive) | 16.3 µM (inactive) | 21.1 µM (inactive) | 18.3 µM (inactive) | 30.6 µM (inactive) | 22.5 µM (inactive) | 68.7 µM (inactive) | 20.9 µM (inactive) | 36.4 µM (inactive) |  |  | 
10 | NC(=O)N1N=C2c3ccccc3SC[C@H]2[C@@H]1c1ccccc1 | 21.4 µM (inactive) | 13.5 µM (inactive) | 21.8 µM (inactive) |  | 23.9 µM | 34.5 µM (inactive) | 20.2 µM (inactive) | 32.1 µM (inactive) | 22.1 µM (inactive) | 19.7 µM (inactive) | 2.26 µM (inactive) | 25.1 µM (inactive) | 37.3 µM (inactive) | 29 µM (inactive) |  | 33.8 µM (inactive) | 24 µM (inactive) |  |  | 
11 | Clc1ccc(C2=NOC3C4CCC(C4)C23)cc1 (stereo not drawn) | > 100 µM (inactive) | > 100 µM (inactive) | > 100 µM (inactive) | > 100 µM (inactive) | > 100 µM | > 100 µM (inactive) |  | > 100 µM (inactive) | > 100 µM (inactive) | > 100 µM (inactive) |  | 73.1 µM (inactive) | > 100 µM (inactive) | > 100 µM (inactive) | > 100 µM (inactive) | > 100 µM (inactive) | > 100 µM (inactive) | > 100 µM (inactive) |  | 
12 | CCCCCCCCCCCCCCCCCC(=O)NCCCNCCCNC(=O)CCCCCCCCCCCCCCCCC | > 100 µM (inactive) | > 100 µM (inactive) | > 100 µM (inactive) |  | > 100 µM | > 100 µM (inactive) | > 100 µM (inactive) | > 100 µM (inactive) | > 100 µM (inactive) | > 100 µM (inactive) |  | > 100 µM (inactive) | > 100 µM (inactive) | > 100 µM (inactive) | > 100 µM (inactive) | > 100 µM (inactive) | > 100 µM (inactive) | > 100 µM (inactive) |  | 
13 | c1ccc2cc(CNCCCCNCCCNCc3ccc4ccccc4c3)ccc2c1 |  | 0.3 µM (active) | 1.69 µM (inactive) | 2.07 µM (inactive) | 0.824 µM | 1.43 µM (inactive) |  | 1.75 µM (inactive) | 0.564 µM (active) | 0.229 µM (active) | 1.49 µM (inactive) | 1.5 µM (inactive) | 1.62 µM (inactive) | 0.423 µM (active) | 1.76 µM (inactive) | 0.733 µM (active) | 1.69 µM (inactive) |  | 2.77 µM (inactive) | 0.548 µM (active)
14 | O=c1[nH]nc2ccccc2c1Cl | 10.4 µM (inactive) | 16.3 µM (inactive) | > 10 µM (inactive) | 17.3 µM (inactive) | 6.41 µM | 16.1 µM (inactive) | 14.6 µM (inactive) | 18 µM (inactive) | 15.8 µM (inactive) | 6.68 µM (inactive) |  | 20.5 µM (inactive) | 29.3 µM (inactive) | 14.6 µM (inactive) | 17.7 µM (inactive) | 17.6 µM (inactive) | 21.2 µM (inactive) | 15.7 µM (inactive) |  | 
15 | CCOC(=O)CCC(NC(=O)c1ccc(Nc2nc3cc(C(F)(F)F)ccc3nc2-c2ccccc2)cc1)C(=O)OCC (stereo not drawn) |  | 26.4 µM (inactive) | 26.5 µM (inactive) | > 100 µM (inactive) | 24.7 µM | 21.5 µM (inactive) |  | 19.6 µM (inactive) | 25.3 µM (inactive) | 25.8 µM (inactive) | > 100 µM (inactive) | 33.4 µM (inactive) | > 100 µM (inactive) | 29.6 µM (inactive) | 30.5 µM (inactive) | 19.3 µM (inactive) | 20.6 µM (inactive) |  | 16.4 µM (inactive) | 20.6 µM (inactive)
16 | C[n+]1cccc2ccc3cccnc3c21 |  | 19.4 µM (inactive) | 55.7 µM (inactive) | 19.3 µM (inactive) | 61.8 µM | 30.8 µM (inactive) |  | 27.5 µM (inactive) | 18.5 µM (inactive) | 28.2 µM (inactive) | 46.3 µM (inactive) | 43.6 µM (inactive) | 5.64 µM (inactive) | 63.5 µM (inactive) | 47.6 µM (inactive) | 35.1 µM (inactive) | 12.3 µM (inactive) |  | 21 µM (inactive) | 38.5 µM (inactive)
17 | O/N=C1/CCCC/C1=C\c1ccc(Cl)c(Cl)c1 | 32.9 µM (inactive) | 17.2 µM (inactive) | 34.2 µM (inactive) |  | 28.4 µM | 27.9 µM (inactive) | 20.5 µM (inactive) | 34.8 µM (inactive) | 17.3 µM (inactive) | 18.8 µM (inactive) |  | 40.5 µM (inactive) | 30.1 µM (inactive) | 29.9 µM (inactive) | 35.3 µM (inactive) | 18.4 µM (inactive) | 33.7 µM (inactive) | 22.1 µM (inactive) |  | 
